Test results from US20200345733A1, “Microbicidal Pyrimidine or Triazine Containing Compounds” (Janssen Sciences Ireland UC, priority 2002, published 2020).

Assay: Cytotoxicity in CEM T cells
Assay type: cell-based
Conditions: human; viability of CEM T cells decreased by 50%
Procedure: As a reference system, CEM T cells (obtained from the American Type culture Collection in Rockville, Md.) were used under previously standardized conditions (Balzarini J, et al. AIDS Res Hum Retroviruses 10 Apr. 2000, 16: 517-528). Briefly, cells were suspended at 250,000 cells/ml in RPMI-1640, supplemented with 10% fetal calf serum, 2 mM L-glutamine and 0.075% NaHCO3 and infected with HTLV-IIIB at ˜20 TCID50. 100 μl of a 5-fold dilution series of the drugs were immediately added to 100 μl of the infected cells in 200-μl well plates. After 4 to 5 days of incubation at 37° C., the cultures were examined for syncytium formation. The EC50 is the concentration required to inhibit syncytium formation by 50%. Cytotoxicity was evaluated and given as CC50 values, which is the concentration at which the viability of the CEM cells is decreased by 50%.

Cc1cc(C)c(Nc2ccnc(Nc3ccc(C#N)cc3)n2)c(C)c1 [compound B, 4-[[4-[(2,4,6-trimethylphenyl)amino]-2-pyrimidinyl]amino]benzonitrile]
CC50: 1.37 µM
